Patent publication US8552183B2, “Process for the covalent coupling of two molecules by means of a diels-alder reaction with inverse electron requirement” (Deutsches Krebsforschungszentrum Stiftung des Offentlichen …, priority 2006, dated 2013)

Tests used:
Format in all cases: physicochemical
[1] = DARinv kinetic measurement, tetrazines with dienophile 27
Method: (§1) Exploratory kinetic DARinv measurements for the produced dienes and dienophiles show the expected broad reaction behavior.
(§2) Legend: rate constants for the reaction for the reaction DARinv of dienes with dienophiles in liter mol^−1s^−1; n.d. means not yet measured. n.d(+) means: reaction is carried out, however, is too slow for the measurements, DAR adduct is characterized.
(§3) The conduction is very simple since the tetrazines have an absorption maximum of sufficient intensity at 520 nm whose reduction can be very well traced by means of photometry. The kinetic analysis supplies a rate law of second order.

[2] = DARinv kinetic measurement, tetrazines with dienophile 14; conditions: second order
Method: as §1, §2, §3

[3] = DARinv kinetic measurement, tetrazines with dienophile 13 (Reppe-ester); conditions: second order
Method: as §1, §2, §3

[4] = DARinv kinetic measurement, tetrazines with dienophile 28 (photometry at 520 nm); conditions: second order
Method: as §1, §2, §3

[5] = DARinv kinetic measurement, tetrazines with dienophile 17; conditions: second order
Method: as §1, §2, §3

[6] = DARinv kinetic measurement, tetrazines with dienophile 26; conditions: second order
Method: as §1, §2, §3

[7] = DARinv kinetic measurement, tetrazines with dienophile 16; conditions: second order
Method: as §1, §2, §3

[8] = DARinv of a methylene-group dienophile, reaction time; conditions: room temperature; reacts very slowly
Method: A twofold substituted double bond as occurring in fatty acids or lipids, only reacts very slowly under normal conditions in the sense of DARinv. A methylene group, such as in the perilla alcohol, also reacts very slowly at room temperature (60 hours) in the sense of the DARinv thereby forming the expected adduct. However, as soon as a double bond is integrated within a carbocyclic ring system, it reacts much more rapidly than dienophile, the reactivity decreasing with increasing ring size, starting with the cyclopropene, and passing through a minimum with cyclohexene. In ring systems greater than seven rings, triple bonds can also react as inverse dienophiles.

[9] = with dienophile 27, lower part of Table 2 (drawing 12)
[10] = with dienophile 27, upper part of Table 2 (drawing 3)

SMILES | rate constant k of DARinv [1, 9] | rate constant k of DARinv [1, 10] | rate constant k of DARinv [2] | rate constant k of DARinv [3] | rate constant k of DARinv [4] | rate constant k of DARinv [5] | rate constant k of DARinv [6] | rate constant k of DARinv [7] | reaction time of DARinv forming the expected adduct [8]
COC(=O)CNC(=O)c1nnc(C(=O)NCC(=O)OC)nn1 | 0.0073 M⁻¹ s⁻¹ | 0.0069 M⁻¹ s⁻¹ | 0.048 M⁻¹ s⁻¹ | 0.028 M⁻¹ s⁻¹ | 0.028 L/mol/s | 0.18 M⁻¹ s⁻¹ | 0.0056 L/mol/s | 0.44 M⁻¹ s⁻¹ | 
C=C(C)[C@@H]1CC=C(CO)CC1 [perilla alcohol] |  |  |  |  |  |  |  |  | 60 h
COC(=O)c1nnc(C(=O)OC)nn1 | 0.0048 M⁻¹ s⁻¹ | 0.0036 M⁻¹ s⁻¹ | 1.63 M⁻¹ s⁻¹ | 3.4 M⁻¹ s⁻¹ | 0.022 L/mol/s | 0.13 M⁻¹ s⁻¹ | 0.0028 L/mol/s | 0.44 M⁻¹ s⁻¹ | 
O=C(NCCO)c1nnc(C(=O)NCCO)nn1 | 0.008 M⁻¹ s⁻¹ | 0.0067 M⁻¹ s⁻¹ | 0.69 M⁻¹ s⁻¹ | 0.2 M⁻¹ s⁻¹ | 0.023 L/mol/s | 0.06 M⁻¹ s⁻¹ | 0.0053 L/mol/s | 0.11 M⁻¹ s⁻¹ | 
COC(=O)CNC(=O)c1nnc(C(=O)N(C)C)nn1 |  |  |  | 0.014 M⁻¹ s⁻¹ | <10^−4 liter mol^−1s^−1 |  | <10^−4 liter mol^−1s^−1 |  | 
